In patent publication USRE38604E1, “Fluid therapy with L-lactate and/or pyruvate anions” (BTG International Limited, priority 1984, dated 2004):

How the values were obtained:
brain tissue = settings: rat, aqueous 20 mM/l, parenteral
[1] = patient undergoing continuous cyclic peritoneal dialysis; severe recurrent metabolic alkalemia secondary to it; cited from earlier work

| SMILES | effect on brain tissue (brain tissue) | outcome with continued administration (coma, cerebral edema, death) (brain tissue) | adverse effect of inclusion in routine dialysis fluids [1] |
| --- | --- | --- | --- |
| C[C@@H](O)C(=O)O [d-lactate] | swelling of brain tissue is observed | coma develops, the cerebral edema worsens and death ensues | – |
| CC(O)C(=O)O (racemic) [d,l-lactate] | – | – | encephalopathy |
| C[C@H](O)C(=O)O [l-lactate] | – | does not cause coma or death | – |
